Laboratory results: patent US20240294499A1, “TARGETED PROTEIN DEGRADATION USING BIFUNCTIONAL COMPOUNDS THAT BIND UBIQUITIN LIGASE AND TARGET MCL-1 PROTEIN” (Captor Therapeutics S.A., priority 2021, published 2024)

How the values were obtained:
[1] = target: T1, [MCL-1]-[compound of formula (I)]-[CRBN/DDB1] complex (Homo sapiens, UniProt Q07820+Q96SW2); experiment: AlphaLISA dose response ternary complex formation assay; assay type: binding; details: read-out: AlphaLISA dose response Average pEC50 by molecule (converted)
Outline: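 EC50 comes from dose–response of AlphaLISA luminescence (excitation 680, emission 615 nm), normalised between DMSO background and an internal positive control, with concentrations past the hook point dropped. Ternary complex formed by mixing bead-bound biotin-hMCL-1 and His-CRBN/DDB1 (protein solutions 40 and 200 nM) with compound in 2% DMSO, 30 min, 25 °C.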

[2] = tested on: ARH-77 cells; experiment: Cell viability assay (CellTiter-Glo), ARH-77; assay type: cell-based; details: Homo sapiens, ARH-77, 24 hours incubation, 1% FBS, read-out: Average pIC50 by molecule ARH-77 (converted)
Outline: (§1)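 Luminescent ATP readout (CellTiter-Glo) at 24 hours measured viability, expressed relative to DMSO-treated wells. Compound was added directly to the medium as a 9–12-point threefold series starting at 30 uM, at 0.5% final DMSO. The medium contained FBS reduced to 1%.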

[3] = target: T1, [MCL-1]-[compound of formula (I)]-[CRBN/DDB1] complex; experiment: HTRF ternary complex assay; assay type: binding; details: ternary complex formation; read-out: HTRF ternary complex Average pEC50 by molecule (converted)
Procedure: The effect of the bifunctional compounds of the invention on the formation of a ternary complex composed of [MCL-1]-[compound of formula (I)]-[CRBN/DDB1] was investigated.
Mix of protein solution were prepared: • 48 nM hMcl-1 and 105.6 nM CRBN was prepared in PPI Europium detection buffer with 2 mM DTT. • Acceptor and donor stock solutions were diluted 100 times in PPI Europium detection buffer. Equal volumes of both reagents were mixed. Finally giving 3 nM of Streptavidin-Eu cryptate […] and 6.67 nM of Anti-6× his-d2 […].
5 μl of protein mix was dispensed to all wells. The tested compounds in dose-response were dispensed onto a white 384-well low volume plate (Greiner, 784075). DMSO was backfilled to all wells, resulting in a final DMSO content of 0.5%. Wells containing only DMSO served as background. Next, 5 μl of solution with donor and acceptor was added to the wells.
The plate was sealed with transparent film and shaken using a VibroTurbulator for 60 see at level 3. The plate was then spun down shortly (10 s, 1000 rcf) and incubated at 25° C. for 180 min.
The read-out was performed with plate reader (Pherastar, BMG Labtech) in time resolved fluorescence mode. Filterset: TR 337 665 620.
The results were analyzed as follows: • 1) an average of fluorescence for background signal was calculated and used as a negative control; • 2) raw fluorescence values for tested compounds were normalized against negative controls; • 3) bell shape curve was fitted to a gaussian distribution using a non-linear least squares Gauss-Newton algorithm; • 4) EC50 and pEC50 values were determined.

[4] = tested on: MV-4-11 cells; experiment: Cell viability assay (CellTiter-Glo), MV-4-11; assay type: cell-based; details: Homo sapiens, MV4-11, 24 hours incubation, 1% FBS, read-out: Average pIC50 by molecule MV-4-11 (converted)
Outline: as §1

T1 sequence (Q07820 whole entry): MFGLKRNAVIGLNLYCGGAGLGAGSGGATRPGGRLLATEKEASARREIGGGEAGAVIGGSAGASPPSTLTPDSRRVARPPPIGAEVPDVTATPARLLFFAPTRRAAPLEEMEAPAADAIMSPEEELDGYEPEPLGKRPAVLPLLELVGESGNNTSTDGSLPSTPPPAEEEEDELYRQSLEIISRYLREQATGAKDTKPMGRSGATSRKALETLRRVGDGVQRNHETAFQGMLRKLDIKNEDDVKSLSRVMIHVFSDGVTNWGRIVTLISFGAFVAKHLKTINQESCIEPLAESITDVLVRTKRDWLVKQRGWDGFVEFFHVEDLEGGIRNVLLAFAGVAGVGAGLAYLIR
T1 sequence (Q96SW2 whole entry): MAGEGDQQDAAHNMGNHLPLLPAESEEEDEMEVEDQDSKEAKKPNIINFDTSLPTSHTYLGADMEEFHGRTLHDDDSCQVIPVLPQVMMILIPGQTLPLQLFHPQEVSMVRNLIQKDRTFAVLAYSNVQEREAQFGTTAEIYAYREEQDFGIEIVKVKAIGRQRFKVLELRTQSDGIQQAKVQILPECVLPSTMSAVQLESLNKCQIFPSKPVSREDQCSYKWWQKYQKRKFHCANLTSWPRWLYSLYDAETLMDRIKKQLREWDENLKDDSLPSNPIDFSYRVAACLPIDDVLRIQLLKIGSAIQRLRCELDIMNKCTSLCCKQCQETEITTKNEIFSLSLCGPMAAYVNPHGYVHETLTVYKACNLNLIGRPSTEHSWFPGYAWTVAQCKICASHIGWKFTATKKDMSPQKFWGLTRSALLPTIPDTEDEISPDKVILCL
T1 sequence (Q16531 whole entry partner): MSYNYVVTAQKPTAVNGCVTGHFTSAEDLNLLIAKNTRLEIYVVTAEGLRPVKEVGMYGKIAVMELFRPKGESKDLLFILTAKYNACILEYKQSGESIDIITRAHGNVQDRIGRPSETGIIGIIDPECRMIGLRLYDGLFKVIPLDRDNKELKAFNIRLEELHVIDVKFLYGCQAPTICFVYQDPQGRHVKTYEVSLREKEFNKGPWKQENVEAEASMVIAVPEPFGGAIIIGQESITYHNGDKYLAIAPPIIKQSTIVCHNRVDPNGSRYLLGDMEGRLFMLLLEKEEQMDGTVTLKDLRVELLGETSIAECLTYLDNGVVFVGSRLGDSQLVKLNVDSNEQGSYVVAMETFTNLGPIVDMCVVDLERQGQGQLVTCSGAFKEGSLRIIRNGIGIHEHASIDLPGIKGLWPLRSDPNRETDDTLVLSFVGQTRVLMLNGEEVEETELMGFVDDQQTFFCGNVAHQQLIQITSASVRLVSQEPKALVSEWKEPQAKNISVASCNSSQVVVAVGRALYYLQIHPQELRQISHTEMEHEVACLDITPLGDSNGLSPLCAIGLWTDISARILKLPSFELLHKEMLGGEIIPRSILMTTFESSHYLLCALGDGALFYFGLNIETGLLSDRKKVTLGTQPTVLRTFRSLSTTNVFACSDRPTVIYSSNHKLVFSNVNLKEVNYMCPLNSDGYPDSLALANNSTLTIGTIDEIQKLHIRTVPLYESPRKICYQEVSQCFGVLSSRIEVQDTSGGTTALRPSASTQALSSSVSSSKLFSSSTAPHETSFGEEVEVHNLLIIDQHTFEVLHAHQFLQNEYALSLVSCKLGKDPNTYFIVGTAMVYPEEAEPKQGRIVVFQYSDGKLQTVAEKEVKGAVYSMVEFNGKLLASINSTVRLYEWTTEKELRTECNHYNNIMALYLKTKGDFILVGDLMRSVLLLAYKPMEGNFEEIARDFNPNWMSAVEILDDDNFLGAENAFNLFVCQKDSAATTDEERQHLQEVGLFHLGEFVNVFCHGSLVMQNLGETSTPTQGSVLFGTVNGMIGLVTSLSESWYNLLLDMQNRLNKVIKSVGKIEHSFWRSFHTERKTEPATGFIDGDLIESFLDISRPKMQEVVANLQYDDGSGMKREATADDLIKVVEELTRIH

| Structure (SMILES) | EC50 [1] | IC50 [2] | EC50 [3] | IC50 [4] |
| --- | --- | --- | --- | --- |
| Cc1nn(C)c(C)c1-c1c(Cl)ccc2c(CCCOc3cccc4cc(F)ccc34)c(C(=O)O)n(CCN3CCN(CCOc4cccc5c4C(=O)N(C4CCC(=O)NC4=O)C5=O)CC3)c12 (stereo not drawn) [Compound 321, 6-Chloro-1-(2-(4-(2-((2-(2,6-dioxopiperidin-3-yl)-1,3-dioxoisoindolin-4-yl)oxy)ethyl)piperazin-1-yl)ethyl)-3-(3-((6-fluoronaphthalen-1-yl)oxy)propyl)-7-(1,3,5-trimethyl-1H-pyrazol-4-yl)-1H-indole-2-carboxylic acid] | < 10 nM | > 10000 nM | < 100 nM | ≤ 316 nM |
| Cc1nn(C)c(C)c1-c1c(Cl)ccc2c(CCCOc3cccc4cc(F)ccc34)c(C(=O)O)n(CCCCCN(C)C(=O)COc3cccc4c3CN(C3CCC(=O)NC3=O)C4=O)c12 (stereo not drawn) [Compound 328, 6-Chloro-1-(5-(2-((2-(2,6-dioxopiperidin-3-yl)-1-oxoisoindolin-4-yl)oxy)-N-methylacetamido)pentyl)-3-(3-((6-fluoronaphthalen-1-yl)oxy)propyl)-7-(1,3,5-trimethyl-1H-pyrazol-4-yl)-1H-indole-2-carboxylic acid] | < 100 nM | > 3160 nM | < 100 nM | ≤ 31.6 nM |
| Cc1nn(C)c(C)c1-c1c(Cl)ccc2c(CCCOc3cccc4cc(F)ccc34)c(C(=O)O)n(CCCNC(=O)COc3cccc4c3CN(C3CCC(=O)NC3=O)C4=O)c12 (stereo not drawn) [Compound 330, 6-Chloro-1-[3-(2-{[2-(2,6-dioxopiperidin-3-yl)-1-oxo-2,3-dihydro-1H-isoindol-4-yl]oxy}acetamido)propyl]-3-{3-[(6-fluoronaphthalen-1-yl)oxy]propyl}-7-(1,3,5-trimethyl-1H-pyrazol-4-yl)-1H-indole-2-carboxylic acid] | < 100 nM | > 10000 nM | < 100 nM | ≤ 100 nM |
| Cc1nn(C)c(C)c1-c1c(Cl)ccc2c(CCCOc3cccc4cc(F)ccc34)c(C(=O)O)n(CCN3CCC4CN(C(=O)COc5cccc6c5CN(C5CCC(=O)NC5=O)C6=O)CC43)c12 (stereo not drawn) [Compound 301, 6-Chloro-1-{2-[5-(2-{[2-(2,6-dioxopiperidin-3-yl)-1-oxo-2,3-dihydro-1H-isoindol-4-yl]oxy}acetyl)-octahydropyrrolo[2,3-c]pyrrol-1-yl]ethyl}-3-{3-[(6-fluoronaphthalen-1-yl)oxy]propyl}-7-(1,3,5-trimethyl-1H-pyrazol-4-yl)-1H-indole-2-carboxylic acid] | < 10 nM | > 10000 nM | < 10 nM | ≤ 100 nM |
| Cc1nn(C)c(C)c1-c1c(Cl)ccc2c(CCCOc3cccc4cc(F)ccc34)c(C(=O)O)n(CCCNC(=O)Cn3c(C)nc4c(C(=O)NC5CCC(=O)NC5=O)cccc43)c12 (stereo not drawn) [Compound 281, 6-Chloro-1-[3-(2-{4-[(2,6-dioxopiperidin-3-yl)carbamoyl]-2-methyl-1H-1,3-benzodiazol-1-yl}acetamido)propyl]-3-{3-[(6-fluoronaphthalen-1-yl)oxy]propyl}-7-(1,3,5-trimethyl-1H-pyrazol-4-yl)-1H-indole-2-carboxylic acid] | < 100 nM | > 10000 nM | < 10 nM | ≤ 100 nM |
| Cc1nn(C)c(C)c1-c1c(Cl)ccc2c(CCCOc3cccc4cc(F)ccc34)c(C(=O)O)n(CCCOCCn3c(C)nc4c(C(=O)NC5CCC(=O)NC5=O)cccc43)c12 (stereo not drawn) [Compound 280, 6-Chloro-1-[3-(2-{4-[(2,6-dioxopiperidin-3-yl)carbamoyl]-2-methyl-1H-1,3-benzodiazol-1-yl}ethoxy)propyl]-3-{3-[(6-fluoronaphthalen-1-yl)oxy]propyl}-7-(1,3,5-trimethyl-1H-pyrazol-4-yl)-1H-indole-2-carboxylic acid] | < 10 nM | > 3160 nM | < 10 nM | ≤ 100 nM |
| Cc1nn(C)c(C)c1-c1c(Cl)ccc2c(CCCOc3cccc4cc(F)ccc34)c(C(=O)O)n(CCN3CC(N4CCN(c5cc6c(cc5F)C(=O)N(C5CCC(=O)NC5=O)C6=O)CC4)C3)c12 (stereo not drawn) [Compound 337, 6-Chloro-1-(2-(3-(4-(2-(2,6-dioxopiperidin-3-yl)-6-fluoro-1,3-dioxoisoindolin-5-yl)piperazin-1-yl)azetidin-1-yl)ethyl)-3-(3-((6-fluoronaphthalen-1-yl)oxy)propyl)-7-(1,3,5-trimethyl-1H-pyrazol-4-yl)-1H-indole-2-carboxylic acid] |  | > 10000 nM | < 10 nM | ≤ 316 nM |
| O=C1CCC(N2Cc3c(OCC(=O)N4CCN(CCn5c(C(=O)O)c(CCCOc6cccc7cc(F)ccc67)c6ccc(Cl)c(-c7cnn8cccnc78)c65)CC4)cccc3C2=O)C(=O)N1 (stereo not drawn) [Compound 348, 6-Chloro-1-(2-(4-(2-((2-(2,6-dioxopiperidin-3-yl)-1-oxoisoindolin-4-yl)oxy)acetyl)piperazin-1-yl)ethyl)-3-(3-((6-fluoronaphthalen-1-yl)oxy)propyl)-7-(pyrazolo[1,5-a]pyrimidin-3-yl)-1H-indole-2-carboxylic acid] |  | > 10000 nM | < 100 nM | ≤ 316 nM |
| Cc1nc2cc(NCC(=O)N3CCN(CCn4c(C(=O)O)c(CCCOc5cccc6cc(F)ccc56)c5ccc(Cl)c(-c6c(C)nn(C)c6C)c54)CC3)ccc2cc1C1CCC(=O)NC1=O (stereo not drawn) [Compound 285, 6-Chloro-1-(2-(4-((3-(2,6-dioxopiperidin-3-yl)-2-methylquinolin-7-yl)glycyl)piperazin-1-yl)ethyl)-3-(3-((6-fluoronaphthalen-1-yl)oxy)propyl)-7-(1,3,5-trimethyl-1H-pyrazol-4-yl)-1H-indole-2-carboxylic acid] |  | > 10000 nM | < 10 nM | ≤ 100 nM |
| Cc1nn(C)c(C)c1-c1c(Cl)ccc2c(CCCOc3cccc4cc(F)ccc34)c(C(=O)O)n(CCC3CCC(NC(=O)COc4cccc5c4CN(C4CCC(=O)NC4=O)C5=O)CN3C)c12 (stereo not drawn) [Compound 306, 6-Chloro-1-{2-[5-(2-{[2-(2,6-dioxopiperidin-3-yl)-1-oxo-2,3-dihydro-1H-isoindol-4-yl]oxy}acetamido)-1-methylpiperidin-2-yl]ethyl}-3-{3-[(6-fluoronaphthalen-1-yl)oxy]propyl}-7-(1,3,5-trimethyl-1H-pyrazol-4-yl)-1H-indole-2-carboxylic acid] |  | > 10000 nM | < 10 nM | ≤ 100 nM |
| Cc1nn(C)c(C)c1-c1c(Cl)ccc2c(CCCOc3cccc4cc(F)ccc34)c(C(=O)O)n(CCC3CN(C(=O)COc4cccc5c4CN(C4CCC(=O)NC4=O)C5=O)C3)c12 (stereo not drawn) [Compound 299, 6-Chloro-1-(2-(1-(2-((2-(2,6-dioxopiperidin-3-yl)-1-oxoisoindolin-4-yl)oxy)acetyl)azetidin-3-yl)ethyl)-3-(3-((6-fluoronaphthalen-1-yl)oxy)propyl)-7-(1,3,5-trimethyl-1H-pyrazol-4-yl)-1H-indole-2-carboxylic acid] |  | > 10000 nM | < 100 nM | ≤ 100 nM |
| Cc1nn(C)c(C)c1-c1c(Cl)ccc2c(CCCOc3cccc4cc(F)ccc34)c(C(=O)O)n(CCN3CCN(CC4CN(c5cc6c(cc5F)C(=O)N(C5CCC(=O)NC5=O)C6=O)C4)CC3)c12 (stereo not drawn) [Compound 334, 6-Chloro-1-(2-(4-((1-(2-(2,6-dioxopiperidin-3-yl)-6-fluoro-1,3-dioxoisoindolin-5-yl)azetidin-3-yl)methyl)piperazin-1-yl)ethyl)-3-(3-((6-fluoronaphthalen-1-yl)oxy)propyl)-7-(1,3,5-trimethyl-1H-pyrazol-4-yl)-1H-indole-2-carboxylic acid] |  | > 3160 nM | < 10 nM | ≤ 100 nM |
